Data on four compounds can be found in patent US9758561B2 (priority 2014, dated 2017).

≈ marks a conversion by molar mass, not a printed value. Where two headings read alike, the source gives them in different places. Where only a bound is given, the exact number is not on record here.

A short description of data set [1]: Stability testing in solution, 7 days at 40° C. (HPLC-UV). Format: physicochemical. To be noted: for Stability pH 4.5: pH 4.5, 7 days at 40° C. in solution; for Stability pH 7.4: pH 7.4, 7 days at 40° C. in solution. As to the method:
After that time course, the sample was centrifuged for 20 min at 4500 rpm and 0.2 μL of the supernatant were analysed with HPLC-UV.
For determination of the amount of the remaining peptide, the peak areas of the target compound at t0 and t7 were compared, resulting in “% remaining peptide”, following the equation % remaining peptide=[(peak area peptide t7)×100]/peak area peptide t0.
The stability is expressed as “% remaining peptide”.

The nature of data set [2]: Solubility testing in buffer (HPLC-UV). The data set is classed as physicochemical. As to the method: Prior to the testing of solubility and stability of a peptide batch, its purity (HPLC-UV) was determined. […] Therefore, solutions from solid samples were prepared in different buffer systems with a concentration of 10 mg/mL compound based on the previously determined % purity. HPLC-UV was performed after 2 h of gentle agitation from the supernatant, which was obtained by 20 min of centrifugation at 4500 rpm. […] This analysis also served as starting point (t0) for the stability testing.

The target of the next data set is T1, human GLP-1 receptor (Homo sapiens, UniProt P43220).
T1 construct: expressed in transfected cells; host or cells: HEK-293
T1 sequence (P43220 24-463): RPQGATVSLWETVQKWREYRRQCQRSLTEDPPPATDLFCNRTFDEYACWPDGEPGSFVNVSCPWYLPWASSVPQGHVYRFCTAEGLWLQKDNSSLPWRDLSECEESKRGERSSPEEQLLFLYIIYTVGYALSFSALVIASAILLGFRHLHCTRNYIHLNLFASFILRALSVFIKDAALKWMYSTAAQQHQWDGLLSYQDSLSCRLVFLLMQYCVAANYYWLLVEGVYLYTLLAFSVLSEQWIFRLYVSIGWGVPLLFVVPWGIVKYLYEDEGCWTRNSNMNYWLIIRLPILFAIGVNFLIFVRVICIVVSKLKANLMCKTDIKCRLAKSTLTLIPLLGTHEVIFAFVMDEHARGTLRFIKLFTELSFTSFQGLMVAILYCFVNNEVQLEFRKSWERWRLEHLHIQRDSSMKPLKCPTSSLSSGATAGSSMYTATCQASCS
Description: cAMP response of HEK-293 cells stably expressing human GLP-1 receptor (HTRF). Format: cell-based. Conditions: read-out: EC50 hGLP-1R. The method, then: For preparation, cells were split into T175 culture flasks and grown overnight to near confluency in medium (DMEM/10% FBS). Medium was then removed and cells washed with PBS lacking calcium and magnesium, followed by proteinase treatment with accutase (Sigma-Aldrich cat. no. A6964). Detached cells were washed and resuspended in assay buffer (1×HBSS; 20 mM HEPES, 0.1% BSA, 2 mM IBMX) and cellular density determined. They were then diluted to 400000 cells/ml and 25 μl-aliquots dispensed into the wells of 96-well plates. For measurement, 25 μl of test compound in assay buffer was added to the wells, followed by incubation for 30 minutes at room temperature. […] Potencies of peptidic compounds at the GLP-1, glucagon and GIP receptors were determined by exposing cells expressing human glucagon receptor (hGlucagon R), human GIP receptor (hGIP-R) or human GLP-1 receptor (hGLP-1R) to the listed compounds at increasing concentrations and measuring the formed cAMP as described in Methods.
In general terms: Time-resolved FRET reads energy transfer from a long-lived donor to a nearby acceptor.

The mark [3] stands for this setting: pH 4.5, target concentration 10 mg/ml, read-out: solubility pH 4.5.
Where [4] appears, read: pH 7.4, target concentration 10 mg/ml, read-out: solubility pH 7.4.

What is called solubility is how much of the substance goes into solution per volume. `CCCCCCCCCCCCCCCC(=O)N[C@@H](CCC(=O)N[C@@H](CCC(=O)NCCCC[C@H](NC(=O)[C@H](CCC(N)=O)NC(=O)[C@H](CCCCN)NC(=O)[C@H](CO)NC(=O)[C@H](CC(C)C)NC(=O)[C@H](CC(=O)O)NC(=O)[C@H](CO)NC(=O)[C@@H](NC(=O)[C@H](Cc1ccccc1)NC(=O)[C@@H](NC(=O)CNC(=O)[C@H](CCC(N)=O)NC(=O)[C@@H](CO)NC(=O)[C@@H](N)Cc1c[nH]cn1)[C@@H](C)O)[C@@H](C)O)C(=O)N[C@@H](CC(=O)O)C(=O)N[C@@H](CCC(=O)O)C(=O)N[C@@H](CCC(=O)O)C(=O)N[C@@H](C)C(=O)N[C@@H](C)C(=O)N[C@@H](CCCNC(=N)N)C(=O)N[C@@H](CC(C)C)C(=O)N[C@@H](Cc1ccccc1)C(=O)N[C@H](C(=O)N[C@@H](CCC(=O)O)C(=O)N[C@@H](Cc1c[nH]c2ccccc12)C(=O)N[C@@H](CC(C)C)C(=O)NC(C)(C)C(=O)N[C@@H](C)C(=O)N[C@H](C)C(=O)NCC(=O)N1CCC[C@H]1C(=O)N[C@@H](CO)C(=O)N[C@@H](CO)C(=O)NCC(=O)N[C@@H](C)C(=O)N1CCC[C@H]1C(=O)N1CCC[C@H]1C(=O)N1CCC[C@H]1C(=O)N[C@@H](CO)C(N)=O)[C@@H](C)CC)C(=O)O)C(=O)O` [SEQ ID NO: 12, H-dSer-Q-G-T-F-T-S-D-L-S-K-Q-K(γE-γE-x53)-D-E-E-A-A-R-L-F-I-E-W-L-Aib-A-dAla-G-P-S-S-G-A-P-P-P-S-NH2]: in data set [1], the “Stability pH 4.5” value came to 85.6 % remaining peptide and the “Stability pH 7.4” value stood at 90.6 % remaining peptide. For the same compound, the solubility at 2 h in data set [2] (setting [3]) came out at 2000 µg/mL (≈ 435 µM). Further, the solubility at 2 h in data set [2] (setting [4]) is greater than 8000 µg/mL.
By EC50 is commonly meant the concentration giving half of the maximal effect. Turning to `CCCCCCCCCCCCCCCC(=O)N[C@@H](CCC(=O)N[C@@H](CCC(=O)NCCCC[C@H](NC(=O)[C@H](CCC(N)=O)NC(=O)[C@H](CCCCN)NC(=O)[C@H](CO)NC(=O)[C@H](CC(C)C)NC(=O)[C@H](CC(=O)O)NC(=O)[C@H](CO)NC(=O)[C@@H](NC(=O)[C@H](Cc1ccccc1)NC(=O)[C@@H](NC(=O)CNC(=O)[C@H](CCC(N)=O)NC(=O)[C@@H](CO)NC(=O)[C@@H](N)Cc1c[nH]cn1)[C@@H](C)O)[C@@H](C)O)C(=O)N[C@@H](CC(=O)O)C(=O)N[C@@H](CCC(=O)O)C(=O)N[C@@H](CCC(=O)O)C(=O)N[C@@H](C)C(=O)N[C@@H](C)C(=O)N[C@@H](CCCNC(=N)N)C(=O)N[C@@H](CC(C)C)C(=O)N[C@@H](Cc1ccccc1)C(=O)N[C@H](C(=O)N[C@@H](CCC(=O)O)C(=O)N[C@@H](Cc1c[nH]c2ccccc12)C(=O)N[C@@H](CC(C)C)C(=O)NC(C)(C)C(=O)N[C@@H](CCCCN)C(=O)N[C@H](C)C(=O)NCC(=O)N1CCC[C@H]1C(=O)N[C@@H](CO)C(=O)N[C@@H](CO)C(=O)NCC(=O)N[C@@H](C)C(=O)N1CCC[C@H]1C(=O)N1CCC[C@H]1C(=O)N1CCC[C@H]1C(=O)N[C@@H](CO)C(N)=O)[C@@H](C)CC)C(=O)O)C(=O)O` [SEQ ID NO: 24, H-dSer-Q-G-T-F-T-S-D-L-S-K-Q-K(γE-γE-x53)-D-E-E-A-A-R-L-F-I-E-W-L-Aib-K-dAla-G-P-S-S-G-A-P-P-P-S-NH2], the EC50 at human GLP-1 receptor (Table 6) came out at 2.4 pM. Moreover, in data set [1], the “Stability pH 4.5” value is reported as 81.8 % remaining peptide and the “Stability pH 7.4” value came out at 95.4 % remaining peptide. Also, the solubility at 2 h in data set [2] (setting [3]) was greater than 8000 µg/mL. Further, the solubility at 2 h in data set [2] (setting [4]) came out at 7000 µg/mL (≈ 1500 µM).
In the case of `CCCCCCCCCCCCCCCC(=O)N[C@@H](CCC(=O)N[C@@H](CCC(=O)NCCCC[C@H](NC(=O)[C@H](CCC(N)=O)NC(=O)[C@H](CCCCN)NC(=O)[C@H](CO)NC(=O)[C@H](CC(C)C)NC(=O)[C@H](CC(=O)O)NC(=O)[C@H](CO)NC(=O)[C@@H](NC(=O)[C@H](Cc1ccccc1)NC(=O)[C@@H](NC(=O)CNC(=O)[C@H](Cc1c[nH]cn1)NC(=O)[C@@H](CO)NC(=O)[C@@H](N)Cc1c[nH]cn1)[C@@H](C)O)[C@@H](C)O)C(=O)N[C@@H](CC(=O)O)C(=O)N[C@@H](CCC(=O)O)C(=O)N[C@@H](CCC(=O)O)C(=O)N[C@@H](C)C(=O)N[C@@H](C)C(=O)N[C@@H](CCCNC(=N)N)C(=O)N[C@@H](CC(C)C)C(=O)N[C@@H](Cc1ccccc1)C(=O)N[C@H](C(=O)N[C@@H](CCC(=O)O)C(=O)N[C@@H](Cc1c[nH]c2ccccc12)C(=O)N[C@@H](CC(C)C)C(=O)NC(C)(C)C(=O)N[C@@H](CCCCN)C(=O)N[C@H](C)C(=O)NCC(=O)N1CCC[C@H]1C(=O)N[C@@H](CO)C(=O)N[C@@H](CO)C(=O)NCC(=O)N[C@@H](C)C(=O)N1CCC[C@H]1C(=O)N1CCC[C@H]1C(=O)N1CCC[C@H]1C(=O)N[C@@H](CO)C(N)=O)[C@@H](C)CC)C(=O)O)C(=O)O` [SEQ ID NO: 26, H-dSer-H-G-T-F-T-S-D-L-S-K-Q-K(γE-γE-x53)-D-E-E-A-A-R-L-F-I-E-W-L-Aib-K-dAla-G-P-S-S-G-A-P-P-P-S-NH2], at human GLP-1 receptor (Table 6), the EC50 amounted to 2 pM. In addition, in data set [1], the “Stability pH 4.5” value is recorded as 92.7 % remaining peptide. For the same compound, the “Stability pH 7.4” value in data set [1] is 96.6 % remaining peptide. In addition, the solubility at 2 h was 6800 µg/mL (≈ 1460 µM) in data set [2] (setting [3]) and 6700 µg/mL (≈ 1440 µM) in data set [2] (setting [4]).
In the case of `CCCCCCCCCCCCCCCC(=O)N[C@@H](CCC(=O)N[C@@H](CCC(=O)NCCCC[C@H](NC(=O)[C@H](CCC(N)=O)NC(=O)[C@H](CCCCN)NC(=O)[C@H](CO)NC(=O)[C@H](CC(C)C)NC(=O)[C@H](CC(=O)O)NC(=O)[C@H](CO)NC(=O)[C@@H](NC(=O)[C@H](Cc1ccccc1)NC(=O)[C@@H](NC(=O)CNC(=O)[C@H](CCC(N)=O)NC(=O)[C@H](CO)NC(=O)[C@@H](N)Cc1c[nH]cn1)[C@@H](C)O)[C@@H](C)O)C(=O)N[C@@H](CC(=O)O)C(=O)N[C@@H](CCC(=O)O)C(=O)N[C@@H](CCC(=O)O)C(=O)N[C@@H](C)C(=O)N[C@@H](C)C(=O)N[C@@H](CCCNC(=N)N)C(=O)N[C@@H](CC(C)C)C(=O)N[C@@H](Cc1ccccc1)C(=O)N[C@H](C(=O)N[C@@H](CCC(=O)O)C(=O)N[C@@H](Cc1c[nH]c2ccccc12)C(=O)N[C@@H](CC(C)C)C(=O)N[C@@H](CCCCN)C(=O)N[C@@H](C)C(=O)NCC(=O)NCC(=O)N1CCC[C@H]1C(=O)N[C@@H](CO)C(=O)N[C@@H](CO)C(=O)NCC(=O)N[C@@H](C)C(=O)N1CCC[C@H]1C(=O)N1CCC[C@H]1C(=O)N1CCC[C@H]1C(=O)N[C@@H](CO)C(N)=O)[C@@H](C)CC)C(=O)O)C(=O)O` [SEQ ID NO: 33, H-S-Q-G-T-F-T-S-D-L-S-K-Q-K(γE-γE-x53)-DEEAARLFIEWLKAGGPSSGAPPPS-NH2, reference compound], at human GLP-1 receptor (Table 8, comparison Aib vs. Lys in position 27), the EC50 is 1 pM.
